*1 amine or outer side, *2 acyl side, *3 side chain or, on linkers, in order; H or OH if unused. Where a SMILES comes first, the peptide text is derived from it. Bridges are numbered along the chain shown (N, C = ends). [ ]: non-standard residue; d: D form. The star is where a group is joined. ξ: configuration not given here. Phe(3-OMe,4-CONHMs) = COc1cc(C[C@H](N)C(=O)O)ccc1C(=O)NS(C)(=O)=O; NMeAbu(3,3-F2-piperidino) = CN[C@@H](CCN1CCCC(F)(F)C1)C(=O)O; X14 = CC(C)[C@H](CC(=O)[C@H](Cc1ccccc1)N(C)[*:1])C(=O)[*:2]; hPhe(3-OMe,4-CONHMe) = CNC(=O)c1ccc(CC[C@H](N)C(=O)O)cc1OC; NMePhe(3-Cl) = CN[C@@H](Cc1cccc(Cl)c1)C(=O)O; ξGln(SO2Me) = CS(=O)(=O)NC(=O)CCC(N)C(=O)O; Tyr(3-F) = N[C@@H](Cc1ccc(O)c(F)c1)C(=O)O; Tyr(3-OMe) = COc1cc(C[C@H](N)C(=O)O)ccc1O; NMeW = CN[C@@H](Cc1c[nH]c2ccccc12)C(=O)O; X9 = O=C([C@@H](CN[*:1])COCCO)[*:2]; NMeF = CN[C@@H](Cc1ccccc1)C(=O)O; NMeGABA = CN(CCCC(=O)[*:2])[*:1]; NMeI = CC[C@H](C)[C@H](NC)C(=O)O; NMeL = CN[C@@H](CC(C)C)C(=O)O; Butyl(3S-OH) = C[C@H](O)CC*; NMeV = CN[C@H](C(=O)O)C(C)C; NMeAbu = CC[C@H](NC)C(=O)O; NMeA = CN[C@@H](C)C(=O)O; Piperidide = C1CCN(*)CC1; X8 = C1COC[C@@H](C*)N1; NBuGly = CCCCNCC(=O)O; NPrGly = CCCNCC(=O)O; Propyl(3-OH) = OCCC*; Sar = CNCC(=O)O; tBu = CC(C)(C)*
test: in vitro; settings: human, Caco-2, Caco-2

Row | SMILES | Papp
1 | CCCCN1CC(=O)N(C)[C@@H](CC(C)C)C(=O)N[C@@H](COC(C)(C)C)C(=O)N(C)[C@@H](Cc2ccccc2)C(=O)N(C)[C@@H](C(C)C)C(=O)N[C@H](C(=O)N2CCCCC2)CC(=O)N[C@H](C)C(=O)N(C)[C@@H](Cc2ccccc2)C(=O)N[C@@H](CC(C)C)C(=O)N(C)[C@@H](CCN2CCCC(F)(F)C2)C(=O)N[C@@H]([C@@H](C)O)C1=O [pd386] ([dA][NMeF]L[NMeAbu(3,3-F2-piperidino)]T[NBuGly][NMeL]S(tBu)[NMeF][NMeV]D-Piperidide; lactam N-11) | 2.3 ×10⁻⁶ cm/s
2 | CCCCN1CC(=O)N(C)[C@@H](Cc2ccccc2)C(=O)NC(CCC(=O)NS(C)(=O)=O)C(=O)N(C)[C@@H](CC(C)C)C(=O)N[C@@H]([C@@H](C)O)C(=O)N(CCCC)CC(=O)N(C)[C@@H](Cc2ccccc2)C(=O)N(C)[C@@H](CC(C)C)C(=O)N[C@@H](CC(C)C)C(=O)N(C)[C@@H](CC(C)C)C(=O)N[C@H](C(=O)N2CCCCC2)CC1=O (stereo partly drawn) [pd65] ([NBuGly][NMeF][ξGln(SO2Me)][NMeL]T[NBuGly][NMeF][NMeL]L[NMeL]D-Piperidide; lactam N-11) | 0.06 ×10⁻⁶ cm/s
3 | CCCCN1CC(=O)N(C)[C@@H](CC(C)C)C(=O)N[C@H](C(=O)N2CCCCC2)CC(=O)N(C)[C@@H](CC(C)C)C(=O)N[C@@H](CC(C)C)C(=O)N(C)[C@@H](CC)C(=O)N(C)[C@@H](Cc2ccccc2)C(=O)NC(CCC(=O)NS(C)(=O)=O)C(=O)N(C)[C@@H](Cc2cccc(Cl)c2)C(=O)N(C)[C@@H](CC(C)C)C(=O)N[C@@H]([C@@H](C)O)C1=O (stereo partly drawn) [pd64] ([NMeL]L[NMeAbu][NMeF][ξGln(SO2Me)][NMePhe(3-Cl)][NMeL]T[NBuGly][NMeL]D-Piperidide; lactam N-11) | 0.15 ×10⁻⁶ cm/s

same assay, conditions: human, Caco-2, Caco-2 (cm/sec)

Row | SMILES | Papp
4 | CC(C)C[C@H]1C(=O)N(C)[C@@H](Cc2c[nH]c3ccccc23)C(=O)N(C)[C@@H](Cc2ccccc2)C(=O)N[C@@H]([C@@H](C)O)C(=O)N(C)[C@@H](C)C(=O)N(C)[C@@H](CC(C)C)C(=O)N[C@H](C(=O)N2CCCCC2)CC(=O)N(C)[C@@H](C)C(=O)N(C)[C@@H](CC(C)C)C(=O)N(C)[C@@H](CC(C)C)C(=O)N[C@@H](C(C)C)C(=O)N1C [pd109] ([NMeA][NMeL][NMeL]V[NMeL][NMeW][NMeF]T[NMeA][NMeL]D-Piperidide; lactam N-11) | 0.0092 ×10⁻⁶ cm/s
5 | CC[C@H](C)[C@@H]1NC(=O)[C@H](CC(C)C)N(C)C(=O)CCCN(C)C(=O)C[C@@H](C(=O)N2CCCCC2)NC(=O)[C@H](CC(C)C)N(C)C(=O)[C@H](CC(C)C)N(C)C(=O)[C@H]([C@@H](C)O)NC(=O)[C@H](CC(C)C)N(C)C(=O)[C@H](COC(C)(C)C)NC(=O)[C@H](Cc2c[nH]c3ccccc23)N(C)C(=O)[C@H](Cc2ccccc2)N(C)C1=O [pd107] ([NMeGABA][NMeL]I[NMeF][NMeW]S(tBu)[NMeL]T[NMeL][NMeL]D-Piperidide; lactam N-11) | 0.17 ×10⁻⁶ cm/s
6 | CCCCN1CC(=O)N(C)[C@@H](CC(C)C)C(=O)N[C@@H](COC(C)(C)C)C(=O)N(C)[C@@H](CC(C)C)C(=O)N(C)[C@@H](CC)C(=O)N[C@H](C(=O)N2CCCCC2)CC(=O)N[C@H](CC(C)C)C(=O)N(C)[C@@H](Cc2ccccc2)C(=O)N[C@@H](Cc2ccc(O)c(OC)c2)C(=O)N(C)[C@@H](CC(C)C)C(=O)N[C@@H]([C@@H](C)O)C1=O [Compound E02] ([dL][NMeF][Tyr(3-OMe)][NMeL]T[NBuGly][NMeL]S(tBu)[NMeL][NMeAbu]D-Piperidide; lactam N-11) | 0.31 ×10⁻⁶ cm/s
7 | CC[C@H](C)[C@@H]1NC(=O)[C@H](CC(C)C)N(C)C(=O)CCCN(C)C(=O)C[C@@H](C(=O)N2CCCCC2)NC(=O)[C@H](CC(C)C)N(C)C(=O)[C@H](CC(C)C)N(C)C(=O)[C@H]([C@@H](C)O)NC(=O)[C@H](CC(C)C)N(C)C(=O)[C@H](Cc2ccc(C(=O)NS(C)(=O)=O)c(OC)c2)NC(=O)[C@H](CC(C)C)N(C)C(=O)[C@H](Cc2ccccc2)N(C)C1=O [AP138] ([NMeGABA][NMeL]I[NMeF][NMeL][Phe(3-OMe,4-CONHMs)][NMeL]T[NMeL][NMeL]D-Piperidide; lactam N-11) | 0.06 ×10⁻⁶ cm/s
8 | CCCCN1CC(=O)N(C)[C@@H](CC(C)C)C(=O)N[C@@H](COC[C@@H]2COCCN2)C(=O)N(C)[C@@H](CC(C)C)C(=O)N(C)[C@@H](CC(C)C)C(=O)N[C@H](C(=O)N2CCCCC2)CC(=O)N[C@H](C(C)C)C(=O)N(C)[C@@H](Cc2ccccc2)C(=O)N[C@@H](CC(C)C)C(=O)N(C)[C@@H](CC)C(=O)N[C@@H]([C@@H](C)O)C1=O [AP239] ([dV][NMeF]L[NMeAbu]T[NBuGly][NMeL]S(X8)[NMeL][NMeL]D-Piperidide; lactam N-11) | 0.18 ×10⁻⁶ cm/s
9 | CCCCN1CC(=O)N(C)[C@@H](C(C)C)C(=O)N[C@@H](COC(C)(C)C)C(=O)N(C)[C@@H](Cc2ccccc2)C(=O)N(C)[C@@H](CC(C)C)C(=O)N[C@H](C(=O)N2CCCCC2)CC(=O)N[C@H](C(C)C)C(=O)N(C)[C@@H](Cc2ccccc2)C(=O)N[C@@H](COCC[C@H](C)O)C(=O)N(C)[C@@H](CC(C)C)C(=O)N[C@@H]([C@@H](C)O)C1=O [AP99] ([dV][NMeF]S(Butyl(3S-OH))[NMeL]T[NBuGly][NMeV]S(tBu)[NMeF][NMeL]D-Piperidide; lactam N-11) | 0.86 ×10⁻⁶ cm/s
10 | CNC(=O)c1ccc(CC[C@@H]2NC(=O)[C@H](CC(C)C)N(C)C(=O)CCCN(C)C(=O)C[C@@H](C(=O)N3CCCCC3)NC(=O)[C@H](CC(C)C)N(C)C(=O)[C@H](CC(C)C)N(C)C(=O)[C@H]([C@@H](C)O)NC(=O)[C@H](CC(C)C)N(C)C(=O)[C@H](COC(C)(C)C)NC(=O)[C@H](Cc3ccccc3)N(C)C(=O)[C@H](CC(C)C)N(C)C2=O)cc1OC [AP203] ([NMeGABA][NMeL][hPhe(3-OMe,4-CONHMe)][NMeL][NMeF]S(tBu)[NMeL]T[NMeL][NMeL]D-Piperidide; lactam N-11) | 0.41 ×10⁻⁶ cm/s
11 | CC(C)C[C@H]1C(=O)N[C@H](C(=O)N2CCCCC2)CC(=O)N(C)[C@@H](C)C(=O)N[C@@H](Cc2ccc(O)c(F)c2)C(=O)N(C)[C@@H](CC(C)C)C(=O)N(C)[C@@H](CC(C)C)C(=O)N[C@@H](C(C)C)C(=O)N(C)[C@@H](Cc2ccccc2)C(=O)N(C)[C@@H](CC(C)C)C(=O)N[C@@H]([C@@H](C)O)C(=O)N(C)CC(=O)N1C [pd122] ([NMeA][Tyr(3-F)][NMeL][NMeL]V[NMeF][NMeL]T[Sar][NMeL]D-Piperidide; lactam N-11) | 0.46 ×10⁻⁶ cm/s
12 | CCCCN1CC(=O)N(C)[C@@H](Cc2ccccc2)C(=O)NC[C@@H](COCCO)C(=O)N(C)[C@@H](CC(C)C)C(=O)N[C@@H]([C@@H](C)O)C(=O)N(CCC)CC(=O)N(C)[C@@H](Cc2ccccc2)C(=O)N(C)[C@@H](CC(C)C)C(=O)N[C@@H](CC(C)C)C(=O)N(C)[C@@H](CC(C)C)C(=O)N[C@H](C(=O)N2CCCCC2)CC1=O [AP133] ([NBuGly][NMeF][X9][NMeL]T[NPrGly][NMeF][NMeL]L[NMeL]D-Piperidide; lactam N-11) | 1.8 ×10⁻⁶ cm/s
13 | CC[C@H](C)[C@@H]1NC(=O)[C@H](CC(C)C)N(C)C(=O)CN(C)C(=O)C[C@@H](C(=O)N2CCCCC2)NC(=O)[C@H](C)N(C)C(=O)[C@H](COC(C)(C)C)NC(=O)[C@H](CC(C)C)N(C)C(=O)[C@H](CC(C)C)N(C)C(=O)CN(C)C(=O)[C@H](Cc2c[nH]c3ccccc23)NC(=O)[C@H](CC(C)C)N(C)C1=O [pd103] ([Sar][NMeL]I[NMeL]W[Sar][NMeL][NMeL]S(tBu)[NMeA]D-Piperidide; lactam N-11) | 0.093 ×10⁻⁶ cm/s
14 | CCCCN1CC(=O)N(C)[C@@H](CC(C)C)C(=O)N[C@H](C(=O)N2CCCCC2)CC(=O)N(C)[C@@H](C)C(=O)N[C@@H](COCC[C@H](C)O)C(=O)N(C)[C@@H](CC(C)C)C(=O)N(C)[C@@H](Cc2cccc(Cl)c2)C(=O)N[C@@H](CC(C)C)C(=O)N(C)[C@@H](Cc2ccccc2)C(=O)N(C)[C@@H](C(C)C)C(=O)N[C@@H]([C@@H](C)O)C1=O [AP103] ([NMeA]S(Butyl(3S-OH))[NMeL][NMePhe(3-Cl)]L[NMeF][NMeV]T[NBuGly][NMeL]D-Piperidide; lactam N-11) | 0.89 ×10⁻⁶ cm/s
15 | CCCCN1CC(=O)N(C)[C@@H](CC(C)C)C(=O)N[C@H](C(=O)N2CCCCC2)CC(=O)N(C)[C@@H](C(C)C)C(=O)N[C@@H](COCCCO)C(=O)N(C)[C@@H](CC(C)C)C(=O)N(C)[C@@H](Cc2ccccc2)C(=O)C[C@@H](C(C)C)C(=O)N(C)[C@@H](Cc2ccccc2)C(=O)N(C)[C@@H](CC(C)C)C(=O)N[C@@H]([C@@H](C)O)C1=O [AP93] ([NMeV]S(Propyl(3-OH))[NMeL][X14][NMeF][NMeL]T[NBuGly][NMeL]D-Piperidide; lactam N-10) | 1.1 ×10⁻⁶ cm/s

same assay, conditions: human, Caco-2, Caco-2 (cm/sec) Papp

Row | SMILES | Papp
16 | CC(C)C[C@H]1C(=O)NCC(=O)N[C@H](C(=O)N(C)[C@@H](Cc2ccccc2)C(=O)N(C)[C@@H](Cc2ccccc2)C(=O)N[C@@H](C)C(=O)N2CCCCC2)CC(=O)N[C@@H](C)C(=O)N[C@@H]([C@@H](C)O)C(=O)N(C)[C@@H](C)C(=O)N(C)[C@@H](Cc2ccccc2)C(=O)N[C@@H](C(C)C)C(=O)N(C)[C@@H](Cc2ccccc2)C(=O)N1C [pd247] (AT[NMeA][NMeF]V[NMeF][NMeL]GD[NMeF][NMeF]A-Piperidide; lactam N-9) | 0.087 ×10⁻⁶ cm/s
17 | CC(C)C[C@H]1C(=O)N(C)[C@@H](Cc2ccccc2)C(=O)N(C)[C@@H](Cc2ccccc2)C(=O)N[C@@H]([C@@H](C)O)C(=O)N(C)[C@@H](C)C(=O)N(C)[C@@H](Cc2ccccc2)C(=O)N[C@H](C(=O)N2CCCCC2)CC(=O)N(C)[C@@H](C)C(=O)N(C)[C@@H](Cc2ccccc2)C(=O)N(C)[C@@H](CC(C)C)C(=O)N[C@@H](C(C)C)C(=O)N1C [pd233] ([NMeA][NMeF][NMeL]V[NMeL][NMeF][NMeF]T[NMeA][NMeF]D-Piperidide; lactam N-11) | 0.17 ×10⁻⁶ cm/s

same assay, conditions: human, Caco-2, Caco-2 (membrane permeability)

Row | SMILES | Papp
18 | CCCN1CC(=O)N(C)[C@@H](CC(C)C)C(=O)N[C@H](C(=O)N2CCCCC2)CC(=O)N(C)[C@@H](CC(C)C)C(=O)N[C@@H](CCC(=O)NC)C(=O)N(C)[C@@H](CC(C)C)C(=O)N(C)[C@@H](Cc2ccccc2)C(=O)N[C@@H](CC(C)C)C(=O)N(C)[C@@H](Cc2ccccc2)C(=O)N(C)[C@@H]([C@@H](C)CC)C(=O)N[C@@H]([C@@H](C)O)C1=O [Compound J03] ([NMeL]E(NHMe)[NMeL][NMeF]L[NMeF][NMeI]T[NPrGly][NMeL]D-Piperidide; lactam N-11) | 0.21 ×10⁻⁶ cm/s
